Where two headings read alike, the source gives them in different places.
Test: Pharmacokinetic study in rats after oral administration of R-FF or H-FF extract (UHPLC-MS/MS of serum)
Assay type: in vivo, SD rats
Conditions: for eliminate rate (judged from t1/2 and MRT values): R-FF group; for double peak phenomena in serum concentration-time curve: both R-FF and H-FF, Figure 3; for AUC(0-inf) / AUC(0-t) / Cmax / Tmax / half-life / MRT last: male, SD, rat, serum, po, 140 g/kg; for AUC(0-inf) / AUC(0-t) / Cmax / Tmax / half-life / MRT last / t 1/2 / C max / MRT0–t / T max: mean ± SD; for AUC(0-inf) / AUC(0-t) / Cmax / Tmax / half-life / t 1/2 / C max / MRT0–t / T max: n = 6; for MRT last: n = 6, read-out: MRT0–t
Experimental: MS analysis was performed on a TSQ Quantis™ triple quadrupole mass spectrometer (Thermo Scientific™, Vanquish™, (Waltham, MA, USA)) equipped with an autosampler. Chromatographic separation was performed on a Thermo Hypersil GOLD C18 column (100 mm × 2.1 mm, 1.9 µm particles). The column temperature was maintained at 30°C. Through the Thermo Scientific™, TraceFinder™ software was acquired and processed. The mobile phase was composed of acetonitrile (A) and water (both containing 0.3% formic acid) (B) with a gradient elution program (0–5 min:10–19% acetonitrile, 5–8 min:19–25% acetonitrile, 8–28 min:25%–100% acetonitrile, 28–32 min: 100%–10%, and 32–34 min: 10%–10%). The system was re-equilibrated in the initial mobile phase 4.0 min before the next injection. The flow rate was set at 0.3 mL/min, and the injection volume was set as 2 μL.
The analytes were detected on a TSQ Quantis triple quadrupole mass spectrometer by selected reaction monitoring (SRM) equipped with a heated electrospray ionization source operated in negative ion modes. The parameters were set as follows: the sheath gas and the aux gas were set at 30 Arb and 10 Arb, respectively; the ion transfer tube temperature was maintained at 325°C; and the vaporizer temperature was set to 350°C.
5 μL of IS solution containing chloramphenicol 100 ng/ml and 795 μL of acetonitrile were added to a 100 μL drug serum sample for sedimentation of proteins. Subsequently, the 1.5 mL centrifuge tube containing mixture was vortexed for 5 min. After that, the mixture was centrifuged at 12,000 rpm for 20 min at 4°C. Finally, the supernatant fluid was removed and evaporated to dryness under a stream of nitrogen at 35°C. The dried residue was redissolved by 100 μL 50% methanol aqueous solution. And the supernatant prepared above was filtered through 0.22 μm membranes transferred to vials by the UHPLC-MS/MS system for data analysis.
12 adult male SD rats (weighing 250∼300 g) were used in pharmacokinetics experiments and randomly assigned to two groups: R-FF group and H-FF group. Before being administered R-FF or H-FF extract, all the rats fasted but with free access to water for 12 h. The R-FF or H-FF extract was orally administered to the rats (140 g/kg body weight). Aliquots of 0.3 ml blood samples were collected in 1.5 ml heparin lithium-anticoagulant tubes at (0.083, 0.166, 0.333, 0.5, 1, 2, 4, 6, 8, 12, 24, 36, and 48 h) via the postorbital venous plexus veins from each rat after oral administration. The blood sample was immediately centrifuged at 3500 rpm for 5 min, and the supernatant 100 μL serum was transferred into a new centrifuge tube and stored at −80°C until analysis.

| Compound | eliminate rate (judged from t1/2 and MRT values) | double peak phenomena in serum concentration-time curve | AUC(0-inf) (oral H-FF extract 140 g/kg) [ng·h/mL] | AUC(0-t) (oral H-FF extract 140 g/kg) [ng·h/mL] | Cmax (oral H-FF extract 140 g/kg) [ng/mL] | Tmax (oral H-FF extract 140 g/kg) [h] | half-life (oral H-FF extract 140 g/kg) [h] | MRT last (oral H-FF extract 140 g/kg) [h] | AUC(0-inf) (oral R-FF extract 140 g/kg) [ng·h/mL] | AUC(0-t) (oral R-FF extract 140 g/kg) [ng·h/mL] | Cmax (oral R-FF extract 140 g/kg) [ng/mL] | Tmax (oral R-FF extract 140 g/kg) [h] | half-life (oral R-FF extract 140 g/kg) [h] | MRT last (oral R-FF extract 140 g/kg) [h] | t 1/2 (oral R-FF extract 140 g/kg) [h] | change of MRT0–t in H-FF group compared to R-FF group (oral, H-FF vs R-FF) | also measured |
| --- | --- | --- | --- | --- | --- | --- | --- | --- | --- | --- | --- | --- | --- | --- | --- | --- | --- |
| COc1cc(/C=C/C(=O)O)ccc1O [Ferulic acid, ferulic acid] | fast eliminate rate | obvious double peak phenomena | 2250 ± 442 | 1760 ± 224 | 380 ± 5.89 | 0.33 | 3.31 ± 0.68 | 3.33 ± 0.11 | 2140 ± 196 | 853 ± 29.4 | 253 ± 25.7 | 0.33 | 5.07 ± 1.87 | 4.21 ± 0.11 | – | – | – |
| O=C(C=Cc1ccc(O)c(O)c1)OC1CC(O)(C(=O)O)CC(O)C1OC(=O)C=Cc1ccc(O)c(O)c1 (stereo not drawn) [Isochlorogenic acid B, isochlorogenic acid B] | slow eliminate rate | – | 455000 ± 14600 | – | 52300 ± 3010 | 0.33 | 16.8 ± 5.09 | 15.2 ± 0.19 | 201000 ± 7210 | 194000 ± 6580 | 25200 ± 1590 | 0.33 | – | 10.9 ± 1.04 | 9.68 ± 1.36 | increased | – |
| O=C(C=Cc1ccc(O)c(O)c1)OC1CC(O)(C(=O)O)CC(O)C1OC(=O)C=Cc1ccc(O)c(O)c1 (stereo not drawn) [Isochlorogenic acid C, isochlorogenic acid C] | slow eliminate rate | – | – | – | – | – | – | – | – | – | – | – | – | – | 20.36 ± 5.22 | increased | C max (oral H-FF extract 140 g/kg): 28183.80 ± 3739.61 ng/mL; MRT0–t (oral H-FF extract 140 g/kg): 16.42 ± 0.84 h; T max (oral H-FF extract 140 g/kg): 0.33 ± 0.00 h; t 1/2 (oral H-FF extract 140 g/kg): 22.14 ± 9.73 h; C max (oral R-FF extract 140 g/kg): 12916.78 ± 3117.99 ng/mL; MRT0–t (oral R-FF extract 140 g/kg): 14.32 ± 1.56 h; T max (oral R-FF extract 140 g/kg): 0.33 ± 0.00 h |
| O=C(C=Cc1ccc(O)c(O)c1)OC1CC(O)(C(=O)O)CC(O)C1O (stereo not drawn) [Neochlorogenic acid, neochlorogenic acid] | slow eliminate rate | obvious double peak phenomena | 117000 ± 15900 | 95700 ± 6560 | 24700 ± 3220 | 0.33 | 14.7 ± 3.88 | 10.9 ± 0.44 | 87000 ± 8340 | 56000 ± 4220 | – | 0.33 | 30.1 ± 6.85 | 12.5 ± 1.19 | – | – | change of T1/2 in H-FF group compared to R-FF group (oral, H-FF vs R-FF): a little shorter |
| C[C@@H]1O[C@@H](OC[C@H]2O[C@@H](Oc3c(-c4ccc(O)c(O)c4)oc4cc(O)cc(O)c4c3=O)[C@H](O)[C@@H](O)[C@@H]2O)[C@H](O)[C@H](O)[C@H]1O [Rutin, rutin] | slow eliminate rate | obvious double peak phenomena | 105000 ± 9980 | 64600 ± 4910 | 7040 ± 429 | 0.39 ± 0.09 | 14.3 ± 2.28 | 22.7 ± 0.82 | 211000 ± 37900 | 100000 ± 9130 | 7430 ± 446 | 0.33 | 30.7 ± 14 | 18.91 ± 0.17 | – | increased | – |

— publication PMC7256776, “Pharmacokinetic Comparisons of Eight Active Components from Raw Farfarae Flos and Honey-Processed Farfarae Flos after Oral Administration in Rats by UHPLC-MS/MS Approaches” (Journal of Analytical Methods in Chemistry, 2020)
